Data published in the NIST ThermoML archive (doi:10.1021/je700152c).

Test: molar heat capacity at saturation pressure; xn = mol fraction of the nth substance listed

CCCCn1cc[n+](C)c1.Cc1ccc(S(=O)(=O)[O-])cc1 [1-butyl-3-methylimidazolium tosylate] + O
Conditions	molar heat capacity [J/K/mol]
294.67 K, Crystal, x1 = 0.3	204.91
294.68 K, Crystal, x1 = 0.83	580.85
294.91 K, Crystal, x1 = 0.37	561.1
295.64 K, Crystal, x1 = 0.37	590.88
295.82 K, Liquid, x1 = 0.3	198.57
296.25 K, Crystal, x1 = 0.83	574.07
296.33 K, Crystal, x1 = 0.37	593.15
296.53 K, Metastable crystal, x1 = 0.83	425.47
296.97 K, Liquid, x1 = 0.3	199.1
297.06 K, Crystal, x1 = 0.37	577.63
297.82 K, Crystal, x1 = 0.37	542.42
297.88 K, Crystal, x1 = 0.83	481.52
298.13 K, Liquid, x1 = 0.3	199.52
298.45 K, Metastable crystal, x1 = 0.83	435.64
298.66 K, Crystal, x1 = 0.37	429.59
299.28 K, Liquid, x1 = 0.3	199.84
299.67 K, Crystal, x1 = 0.83	439.03
299.68 K, Crystal, x1 = 0.37	268.68
300.26 K, Metastable crystal, x1 = 0.83	440.59
301.01 K, Liquid, x1 = 0.3	200.58
301.5 K, Crystal, x1 = 0.83	445.81
301.5 K, Liquid, x1 = 0.37	233.85
302.51 K, Metastable crystal, x1 = 0.83	454.93
303.31 K, Crystal, x1 = 0.83	454.15
303.34 K, Liquid, x1 = 0.3	201.21
304 K, Liquid, x1 = 0.37	232.59
305.11 K, Crystal, x1 = 0.83	462.49
305.64 K, Liquid, x1 = 0.3	201.95
306.39 K, Metastable crystal, x1 = 0.83	484.39
306.5 K, Liquid, x1 = 0.37	233.6
306.89 K, Crystal, x1 = 0.83	471.88
307.94 K, Liquid, x1 = 0.3	202.8
308.65 K, Crystal, x1 = 0.83	484.39
309 K, Liquid, x1 = 0.37	234.48
309.82 K, Metastable crystal, x1 = 0.83	516.2
310.24 K, Liquid, x1 = 0.3	203.54
310.39 K, Crystal, x1 = 0.83	497.69
311.5 K, Liquid, x1 = 0.37	235.37
312.09 K, Crystal, x1 = 0.83	512.81
312.54 K, Liquid, x1 = 0.3	204.38
313.06 K, Metastable crystal, x1 = 0.83	550.87
313.75 K, Crystal, x1 = 0.83	529.23
313.99 K, Liquid, x1 = 0.37	236.25
314.83 K, Liquid, x1 = 0.3	205.13
315.4 K, Crystal, x1 = 0.83	549.31
316.18 K, Metastable crystal, x1 = 0.83	596.49
316.49 K, Liquid, x1 = 0.37	237.13
317.02 K, Crystal, x1 = 0.83	571.21
317.13 K, Liquid, x1 = 0.3	205.87
318.6 K, Crystal, x1 = 0.83	596.23
318.98 K, Liquid, x1 = 0.37	238.14
319.16 K, Metastable crystal, x1 = 0.83	653.33
319.42 K, Liquid, x1 = 0.3	206.82
320.13 K, Crystal, x1 = 0.83	624.39
321.47 K, Liquid, x1 = 0.37	239.03
321.62 K, Crystal, x1 = 0.83	655.93
321.7 K, Liquid, x1 = 0.3	207.45
321.99 K, Metastable crystal, x1 = 0.83	719.81
323.06 K, Crystal, x1 = 0.83	690.35
323.96 K, Liquid, x1 = 0.37	239.91
323.99 K, Liquid, x1 = 0.3	208.19
324.46 K, Crystal, x1 = 0.83	727.63
324.62 K, Metastable crystal, x1 = 0.83	811.31
325.81 K, Crystal, x1 = 0.83	774.82
326.27 K, Liquid, x1 = 0.3	209.04
326.44 K, Liquid, x1 = 0.37	240.92
327.04 K, Metastable crystal, x1 = 0.83	934.11
327.1 K, Crystal, x1 = 0.83	828.52
328.33 K, Crystal, x1 = 0.83	892.65
328.55 K, Liquid, x1 = 0.3	209.99
328.93 K, Liquid, x1 = 0.37	241.8
329.23 K, Metastable crystal, x1 = 0.83	1093.4
329.5 K, Crystal, x1 = 0.83	965.13
330.61 K, Crystal, x1 = 0.83	1053
330.82 K, Liquid, x1 = 0.3	210.94
331.17 K, Metastable crystal, x1 = 0.83	1295.7
331.41 K, Liquid, x1 = 0.37	242.69
331.64 K, Crystal, x1 = 0.83	1141.9
332.6 K, Crystal, x1 = 0.83	1224.8
332.82 K, Metastable crystal, x1 = 0.83	1513.7
333.09 K, Liquid, x1 = 0.3	212.21
333.26 K, Crystal, x1 = 0.83	1386.4
333.89 K, Liquid, x1 = 0.37	243.57
334.14 K, Crystal, x1 = 0.83	1617.9
334.32 K, Metastable crystal, x1 = 0.83	1881.5
335.19 K, Crystal, x1 = 0.83	1296.5
335.35 K, Liquid, x1 = 0.3	213.8
336.19 K, Crystal, x1 = 0.83	1133.3
336.37 K, Liquid, x1 = 0.37	244.45
336.41 K, Metastable crystal, x1 = 0.83	678.36
337.35 K, Crystal, x1 = 0.83	711.99
337.61 K, Liquid, x1 = 0.3	215.06
338.19 K, Crystal, x1 = 0.83	480.74
338.85 K, Liquid, x1 = 0.37	245.21
339.63 K, Liquid, x1 = 0.83	464.32
339.88 K, Liquid, x1 = 0.3	213.58
340.02 K, Liquid, x1 = 0.83	459.1
341.32 K, Liquid, x1 = 0.37	246.09
341.87 K, Liquid, x1 = 0.83	460.41
342.14 K, Liquid, x1 = 0.3	213.58
342.82 K, Liquid, x1 = 0.83	461.71
343.71 K, Liquid, x1 = 0.83	461.71
343.8 K, Liquid, x1 = 0.37	246.98
344.41 K, Liquid, x1 = 0.3	214.32
345.56 K, Liquid, x1 = 0.83	462.75
345.93 K, Liquid, x1 = 0.83	463.79
346.27 K, Liquid, x1 = 0.37	247.86
346.67 K, Liquid, x1 = 0.3	214.96
347.4 K, Liquid, x1 = 0.83	464.06
348.75 K, Liquid, x1 = 0.37	248.62
348.93 K, Liquid, x1 = 0.3	215.7
349.04 K, Liquid, x1 = 0.83	465.88
349.25 K, Liquid, x1 = 0.83	465.36
351.1 K, Liquid, x1 = 0.83	466.66
351.19 K, Liquid, x1 = 0.3	216.44
351.22 K, Liquid, x1 = 0.37	249.38
352.16 K, Liquid, x1 = 0.83	467.97
352.94 K, Liquid, x1 = 0.83	467.71
353.44 K, Liquid, x1 = 0.3	217.07
353.69 K, Liquid, x1 = 0.37	250.51
354.79 K, Liquid, x1 = 0.83	469.01
355.28 K, Liquid, x1 = 0.83	469.79
355.69 K, Liquid, x1 = 0.3	217.81
356.16 K, Liquid, x1 = 0.37	251.4
356.63 K, Liquid, x1 = 0.83	470.31
357.94 K, Liquid, x1 = 0.3	218.55
358.39 K, Liquid, x1 = 0.83	471.88
358.47 K, Liquid, x1 = 0.83	471.62
358.63 K, Liquid, x1 = 0.37	252.4
360.18 K, Liquid, x1 = 0.3	219.19
360.31 K, Liquid, x1 = 0.83	472.92
361.09 K, Liquid, x1 = 0.37	253.04
361.5 K, Liquid, x1 = 0.83	473.7
362.15 K, Liquid, x1 = 0.83	474.22
362.42 K, Liquid, x1 = 0.3	219.82
363.55 K, Liquid, x1 = 0.37	253.92
363.99 K, Liquid, x1 = 0.83	475.27
364.61 K, Liquid, x1 = 0.83	475.79
364.66 K, Liquid, x1 = 0.3	220.25
365.82 K, Liquid, x1 = 0.83	476.31
366 K, Liquid, x1 = 0.37	254.68
366.89 K, Liquid, x1 = 0.3	221.09
367.72 K, Liquid, x1 = 0.83	477.87
368.46 K, Liquid, x1 = 0.37	255.69
